What was measured:
[1] = Selectivity index, ratio of IC50 for mouse BALB/3T3 cells to IC50 for human MV4-11 cells; format: functional
MV4-11 = assay: Antiproliferative activity against human MV4-11 cells; format: functional, cell-based
LoVo [2] = assay: Antiproliferative activity against human LoVo cells; format: functional, cell-based
BALB/3T3 = assay: Cytotoxicity against mouse BALB/3T3 cells; format: cell-based
LoVo [3] = assay: Resistance index, ratio of IC50 for human LoVo/DX cells to IC50 for human LoVo cells; format: functional
[4] = Antiproliferative activity against human LoVo/DX cells; format: functional, cell-based
[5] = Selectivity index, ratio of IC50 for mouse BALB/3T3 cells to IC50 for human LoVo/Dx cells; format: functional
[6] = Selectivity index, ratio of IC50 for mouse BALB/3T3 cells to IC50 for human LoVo cells; format: functional

Row | SMILES | IC50 (MV4-11) [µM] | IC50 (LoVo [2]) [µM] | Ratio IC50 [1] | IC50 (BALB/3T3) [µM] | Ratio IC50 (LoVo [3]) | IC50 [4] [µM] | Ratio IC50 [5] | Ratio IC50 [6]
1 | CCN(CC)C(=O)[C@@H](C)[C@H](OC)[C@H](C)[C@H]1O[C@@]2(CC[C@@](C)([C@H]3CC[C@@](CC)([C@@H]4O[C@@H]([C@H]5O[C@@](O)(CO)[C@H](C)C[C@@H]5C)C[C@@H]4C)O3)O2)C[C@H](O)[C@H]1C | 5.44 | 10.7 | 5.17 | 28.1 | 0.43 | 4.63 | 6.07 | 2.63
2 | CCCN(CCC)C(=O)[C@@H](C)[C@H](OC)[C@H](C)[C@H]1O[C@@]2(CC[C@@](C)([C@H]3CC[C@@](CC)([C@@H]4O[C@@H]([C@H]5O[C@@](O)(CO)[C@H](C)C[C@@H]5C)C[C@@H]4C)O3)O2)C[C@H](O)[C@H]1C | 5.96 | 4.35 | 1.3 | 7.73 | 1.4 | 6.09 | 1.27 | 1.78
3 | CC[C@@]1([C@@H]2O[C@@H]([C@H]3O[C@@](O)(CO)[C@H](C)C[C@@H]3C)C[C@@H]2C)CC[C@H]([C@]2(C)CC[C@]3(C[C@H](O)[C@@H](C)[C@@H]([C@@H](C)[C@@H](OC)[C@H](C)C(=O)N(CCOC)CCOC)O3)O2)O1 | 27.5 | 36.6 | 1.53 | 42 | 0.28 | 10.1 | 4.16 | 1.15
4 | CC[C@@]1([C@@H]2O[C@@H]([C@H]3O[C@@](O)(CO)[C@H](C)C[C@@H]3C)C[C@@H]2C)CC[C@H]([C@]2(C)CC[C@]3(C[C@H](O)[C@@H](C)[C@@H]([C@@H](C)[C@@H](OC)[C@H](C)C(=O)N4CCNCC4)O3)O2)O1 | 3.24 | 8.65 | 10.19 | 33 | 2.39 | 20.7 | 1.6 | 3.82
5 | CC[C@@]1([C@@H]2O[C@@H]([C@H]3O[C@@](O)(CO)[C@H](C)C[C@@H]3C)C[C@@H]2C)CC[C@H]([C@]2(C)CC[C@]3(C[C@H](O)[C@@H](C)[C@@H]([C@@H](C)[C@@H](OC)[C@H](C)C(=O)O)O3)O2)O1 [MONENSIN] | 0.09 | 1.09 | 232.11 | 20.9 | 0.56 | 0.61 | 34.25 | 19.17

More lines, in order of falling IC50 (LoVo [2]), values ahead:

Row | IC50 (MV4-11) [µM] | IC50 (LoVo [2]) [µM] | SMILES | Ratio IC50 [1] | IC50 (BALB/3T3) [µM] | Ratio IC50 (LoVo [3]) | IC50 [4] [µM] | Ratio IC50 [5] | Ratio IC50 [6]
6 | 2.51 | 19.8 | CC[C@@]1([C@@H]2O[C@@H]([C@H]3O[C@@](O)(CO)[C@H](C)C[C@@H]3C)C[C@@H]2C)CC[C@H]([C@]2(C)CC[C@]3(C[C@H](O)[C@@H](C)[C@@H]([C@@H](C)[C@@H](OC)[C@H](C)C(=O)N4CCOCC4)O3)O2)O1 | 19.78 | 49.6 | 0.25 | 4.86 | 10.21 | 2.5
7 | 3.28 | 3.71 | CC[C@@]1([C@@H]2O[C@@H]([C@H]3O[C@@](O)(CO)[C@H](C)C[C@@H]3C)C[C@@H]2C)CC[C@H]([C@]2(C)CC[C@]3(C[C@H](O)[C@@H](C)[C@@H]([C@@H](C)[C@@H](OC)[C@H](C)C(=O)N(Cc4ccccc4)Cc4ccccc4)O3)O2)O1 | 3.99 | 13.1 | 1.02 | 3.78 | 3.46 | 3.53
8 |  | 0.28 | COc1cccc2c1C(=O)c1c(O)c3c(c(O)c1C2=O)C[C@@](O)(C(=O)CO)C[C@@H]3O[C@H]1C[C@H](N)[C@H](O)[C@H](C)O1 [DOXORUBICIN] |  | 0.53 | 23.62 | 6.73 | 0.08 | 1.89

— ChEMBL document CHEMBL3616376, “Anti-proliferative activity of Monensin and its tertiary amide derivatives” (Bioorg Med Chem Lett, 2015)
